In PubChem BioAssay (NCI):
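96-well plates; 48 h exposure; 5 concentrations. Endpoints by linear interpolation between flanking doses. Not reached: highest tested concentration assigned. At the GI50, growth is halved. Definition used: TGI = concentration required for complete inhibition of growth.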

Legend:
Test in all cases: NCI-60 cell line screen, 48 h
[1] = tested on: SK-MEL-5 melanoma
[2] = tested on: CCRF-CEM leukemia
[3] = tested on: SNB-19 CNS
[4] = tested on: SK-MEL-2 melanoma
[5] = tested on: HCC-2998 colon
[6] = tested on: SF-295 CNS
[7] = tested on: CAKI-1 renal
[8] = tested on: HCT-15 colon
[9] = tested on: MDA-MB-435
[10] = tested on: NCI-H460 lung
[11] = tested on: NCI-H522 lung
[12] = tested on: A498 renal
[13] = tested on: SK-MEL-28 melanoma
[14] = tested on: HOP-92 NSCLC
[15] = tested on: HT29 colon
[16] = tested on: PC-3 prostate
[17] = tested on: OVCAR-3 ovarian
[18] = tested on: MDA-MB-231 breast
[19] = tested on: 786-0 renal
[20] = tested on: COLO 205 colon
[21] = tested on: ACHN renal
[22] = tested on: IGROV1 ovarian
[23] = tested on: NCI-H23 lung
[24] = tested on: SK-OV-3 ovarian
[25] = tested on: EKVX NSCLC
[26] = tested on: A549 NSCLC
[27] = tested on: OVCAR-4 ovarian
[28] = tested on: TK-10 renal
[29] = tested on: RPMI-8226 leukemia
[30] = tested on: SW-620 colon
[31] = tested on: MDA-MB-468 breast
[32] = tested on: HCT-116 colon
[33] = tested on: NCI-H226 lung
[34] = tested on: HL-60(TB) leukemia
[35] = tested on: MCF7 breast
[36] = tested on: KM12 colon
[37] = tested on: HS 578T breast
[38] = tested on: K-562 leukemia
[39] = tested on: SR leukemia
[40] = tested on: SN12C renal
[41] = tested on: T-47D breast
[42] = tested on: RXF 393 renal
[43] = tested on: MOLT-4 leukemia
[44] = tested on: SF-539 CNS
[45] = tested on: U251 CNS
[46] = tested on: OVCAR-5 ovarian
[47] = tested on: OVCAR-8 ovarian
[48] = tested on: HOP-62 NSCLC
[49] = tested on: SF-268 CNS
[50] = tested on: M14 melanoma
[51] = tested on: UACC-62 melanoma
[52] = tested on: UO-31 renal
[53] = tested on: BT-549 breast
[54] = tested on: DU-145 prostate
[55] = tested on: UACC-257 melanoma
[56] = tested on: MALME-3M melanoma
[57] = tested on: LOX IMVI melanoma

Cn1cc(-c2cc(N)n3nc(-c4c[nH]c5ccc(F)cc45)cc3n2)c2cccnc21
GI50 [1]: 11.6 µM | TGI [1]: 24.1 µM | GI50 [2]: 2.35 µM | TGI [2]: 7.74 µM | GI50 [3]: 4.05 µM | TGI [3]: 16.2 µM | GI50 [4]: 12.6 µM | TGI [4]: 25.2 µM | GI50 [5]: 1.79 µM | TGI [5]: 3.33 µM | GI50 [6]: 1.69 µM | TGI [6]: 3.17 µM | GI50 [7]: 2.21 µM | TGI [7]: 6.42 µM | GI50 [8]: 1.82 µM | TGI [8]: 4.14 µM | GI50 [9]: 1.92 µM | TGI [9]: 4.18 µM | GI50 [10]: 1.8 µM | TGI [10]: 3.61 µM | GI50 [11]: 13.8 µM | TGI [11]: 27.4 µM | GI50 [12]: 17 µM | TGI [12]: 30.9 µM | GI50 [13]: 1.7 µM | TGI [13]: 3.17 µM | GI50 [14]: 14.2 µM | TGI [14]: 39 µM | GI50 [15]: 1.91 µM | TGI [15]: 3.85 µM | GI50 [16]: 3.26 µM | TGI [16]: 13.4 µM | GI50 [17]: 1.82 µM | TGI [17]: 3.69 µM | GI50 [18]: 1.92 µM | TGI [18]: 3.7 µM | GI50 [19]: 1.64 µM | TGI [19]: 3.11 µM | GI50 [20]: 1.78 µM | TGI [20]: 3.46 µM | GI50 [21]: 1.71 µM | TGI [21]: 3.23 µM | GI50 [22]: 2.24 µM | TGI [22]: 5.39 µM | GI50 [23]: 2.52 µM | TGI [23]: 7.67 µM | GI50 [24]: 18.1 µM | TGI [24]: 39.2 µM | GI50 [25]: 3.47 µM | TGI [25]: 14.9 µM | GI50 [26]: 2.48 µM | TGI [26]: 7.91 µM | GI50 [27]: 11.6 µM | TGI [27]: 30 µM | GI50 [28]: 2.95 µM | TGI [28]: 11.1 µM | GI50 [29]: 2.43 µM | TGI [29]: 7.74 µM | GI50 [30]: 1.83 µM | TGI [30]: 3.78 µM | GI50 [31]: 1.66 µM | TGI [31]: 3.27 µM | GI50 [32]: 1.9 µM | TGI [32]: 3.6 µM | GI50 [33]: 1.92 µM | TGI [33]: 4 µM | GI50 [34]: 1.9 µM | TGI [34]: 4.71 µM | GI50 [35]: 2.01 µM | TGI [35]: 4.19 µM | GI50 [36]: 2.5 µM | TGI [36]: 6.26 µM | GI50 [37]: 16.9 µM | TGI [37]: 54.2 µM | GI50 [38]: 3.42 µM | TGI [38]: 28.3 µM | GI50 [39]: 2.8 µM | TGI [39]: > 100 µM | GI50 [40]: 13.1 µM | TGI [40]: 26.2 µM | GI50 [41]: 2.9 µM | TGI [41]: 13.2 µM | GI50 [42]: 1.77 µM | TGI [42]: 3.35 µM | GI50 [43]: 2.42 µM | TGI [43]: 7.73 µM | GI50 [44]: 1.78 µM | TGI [44]: 3.25 µM | GI50 [45]: 2 µM | TGI [45]: 4.1 µM | GI50 [46]: 3.33 µM | TGI [46]: 13.4 µM | GI50 [47]: 3.18 µM | TGI [47]: 11 µM | GI50 [48]: 8.69 µM | TGI [48]: 21.2 µM | GI50 [49]: 11.6 µM | TGI [49]: 39.6 µM | GI50 [50]: 1.88 µM | TGI [50]: 4.01 µM | GI50 [51]: 1.77 µM | TGI [51]: 3.34 µM | GI50 [52]: 1.66 µM | TGI [52]: 3.24 µM | GI50 [53]: 12.8 µM | TGI [53]: 28.1 µM | GI50 [54]: 2.06 µM | TGI [54]: 4.4 µM | GI50 [55]: 14.8 µM | TGI [55]: 28 µM | GI50 [56]: 1.75 µM | TGI [56]: 3.59 µM | GI50 [57]: 1.8 µM | TGI [57]: 3.29 µM

Clc1ccc(Nc2nnc(CNc3ccccc3)c3ccccc23)cc1
GI50 [31]: 1.9 µM | TGI [31]: 11.5 µM
